Laboratory results published in patent US9637483B2, “Heterocyclic compound” (TAKEDA PHARMACEUTICAL COMPANY LIMITED, priority 2013, dated 2017).

Key:
Format in all cases: biochemical
[1] = molecular target: T1, TYK2 (Homo sapiens, UniProt P29597); assay: TYK2 enzyme inhibition test (LANCE method); conditions: 1 μM test compound; read-out: TYK2 enzyme inhibitory activity (%, 1 μM)
T1 construct: purchased Invitrogen
Outline: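 Recombinant TYK2 (375 ng/mL working solution) with ULight-JAK1 peptide (300 nM working solution) and ATP (30 μM working solution) in HEPES pH 7.5 buffer with MgCl2, EGTA, DTT, Tween20, BSA, reacted 1 h at RT. EDTA-stopped, Eu-anti-phosphotyrosine TR-FRET read at 665 nm; inhibition relative to enzyme-free wells as 100%.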

[2] = molecular target: T2, JAK3 (Homo sapiens, UniProt P52333); assay: JAK3 enzyme inhibition test (LANCE method); conditions: 1 μM test compound; for inhibition at 1 µM: read-out: JAK3 enzyme inhibitory activity (%, 1 μM)
T2 construct: purchased Invitrogen
T2 sequence (P52333 1-1124): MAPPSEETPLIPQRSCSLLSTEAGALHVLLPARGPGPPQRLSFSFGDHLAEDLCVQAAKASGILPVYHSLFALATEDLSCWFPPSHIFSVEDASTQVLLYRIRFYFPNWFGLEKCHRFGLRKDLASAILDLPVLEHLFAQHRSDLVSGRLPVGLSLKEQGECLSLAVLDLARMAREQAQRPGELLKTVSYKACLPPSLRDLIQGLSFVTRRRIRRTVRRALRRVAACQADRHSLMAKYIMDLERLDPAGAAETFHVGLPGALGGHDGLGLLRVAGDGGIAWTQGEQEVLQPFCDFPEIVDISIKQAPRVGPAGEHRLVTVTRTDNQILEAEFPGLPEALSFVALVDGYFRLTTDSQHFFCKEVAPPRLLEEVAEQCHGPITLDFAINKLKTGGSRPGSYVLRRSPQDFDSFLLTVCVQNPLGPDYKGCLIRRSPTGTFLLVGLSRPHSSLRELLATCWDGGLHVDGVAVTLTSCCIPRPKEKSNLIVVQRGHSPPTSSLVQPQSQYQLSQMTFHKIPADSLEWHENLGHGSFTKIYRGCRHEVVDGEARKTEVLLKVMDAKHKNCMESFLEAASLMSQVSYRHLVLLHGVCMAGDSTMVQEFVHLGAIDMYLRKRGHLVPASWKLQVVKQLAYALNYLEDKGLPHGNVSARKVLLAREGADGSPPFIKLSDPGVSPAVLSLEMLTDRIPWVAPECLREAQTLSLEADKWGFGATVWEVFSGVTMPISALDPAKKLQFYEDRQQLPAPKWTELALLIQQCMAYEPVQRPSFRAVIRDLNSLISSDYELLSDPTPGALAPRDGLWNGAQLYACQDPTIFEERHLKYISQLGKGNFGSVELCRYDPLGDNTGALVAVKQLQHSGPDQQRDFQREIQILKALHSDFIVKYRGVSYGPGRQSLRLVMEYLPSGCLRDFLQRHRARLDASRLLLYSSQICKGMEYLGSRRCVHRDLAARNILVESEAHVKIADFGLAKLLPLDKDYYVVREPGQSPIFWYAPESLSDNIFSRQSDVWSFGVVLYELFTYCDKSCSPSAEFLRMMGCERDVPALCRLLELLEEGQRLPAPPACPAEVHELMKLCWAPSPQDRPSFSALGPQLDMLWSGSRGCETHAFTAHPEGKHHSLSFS
Outline: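 Recombinant JAK3 (12 ng/mL solution) with ULight-JAK1 peptide (300 nM solution) and ATP (15 μM solution) in HEPES pH 7.5 buffer, 1 h at room temperature. EDTA stop with Eu-anti-phosphotyrosine antibody; TR-FRET at 665 nm. Inhibition relative to enzyme-free wells as 100%.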

[3] = molecular target: T3, JAK1 (Homo sapiens, UniProt P23458); assay: JAK1 enzyme inhibition test (LANCE method); conditions: 1 μM test compound; for inhibition at 1 µM: read-out: JAK1 enzyme inhibitory activity (%, 1 μM)
T3 construct: purchased Invitrogen
T3 sequence (P23458 whole entry): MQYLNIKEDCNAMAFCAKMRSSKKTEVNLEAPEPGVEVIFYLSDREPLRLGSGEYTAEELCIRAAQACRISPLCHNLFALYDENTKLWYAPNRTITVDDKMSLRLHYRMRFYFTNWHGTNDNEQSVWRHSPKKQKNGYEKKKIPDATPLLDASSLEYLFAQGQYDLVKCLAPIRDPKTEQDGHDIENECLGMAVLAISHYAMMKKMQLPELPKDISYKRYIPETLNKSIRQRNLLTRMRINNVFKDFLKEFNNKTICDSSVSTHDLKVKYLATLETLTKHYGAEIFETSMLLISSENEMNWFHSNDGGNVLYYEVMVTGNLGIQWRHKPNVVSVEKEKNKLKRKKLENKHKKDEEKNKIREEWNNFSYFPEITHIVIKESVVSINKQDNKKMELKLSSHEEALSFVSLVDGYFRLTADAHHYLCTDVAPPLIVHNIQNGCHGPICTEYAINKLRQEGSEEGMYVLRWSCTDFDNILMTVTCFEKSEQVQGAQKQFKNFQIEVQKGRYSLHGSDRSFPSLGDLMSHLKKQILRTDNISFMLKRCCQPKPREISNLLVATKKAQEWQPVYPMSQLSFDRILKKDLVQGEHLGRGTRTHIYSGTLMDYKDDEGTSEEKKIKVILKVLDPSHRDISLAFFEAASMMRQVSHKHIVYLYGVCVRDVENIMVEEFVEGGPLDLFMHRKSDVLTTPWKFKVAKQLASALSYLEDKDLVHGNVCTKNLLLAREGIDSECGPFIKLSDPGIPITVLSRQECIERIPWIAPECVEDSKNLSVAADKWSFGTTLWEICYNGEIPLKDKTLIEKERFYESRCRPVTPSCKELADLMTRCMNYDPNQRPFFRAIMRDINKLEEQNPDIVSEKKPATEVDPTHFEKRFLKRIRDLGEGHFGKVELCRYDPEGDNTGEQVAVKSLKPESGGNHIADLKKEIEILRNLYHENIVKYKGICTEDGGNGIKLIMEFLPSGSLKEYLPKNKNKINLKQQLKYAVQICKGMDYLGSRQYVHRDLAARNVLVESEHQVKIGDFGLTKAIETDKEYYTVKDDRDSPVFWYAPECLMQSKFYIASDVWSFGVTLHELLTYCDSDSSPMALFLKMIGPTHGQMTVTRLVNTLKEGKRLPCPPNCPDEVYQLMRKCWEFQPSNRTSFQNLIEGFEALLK
Outline: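 TR-FRET (LANCE) with ULight-JAK1 peptide (300 nM working solution) and ATP (150 μM working solution) in HEPES pH 7.5, MgCl2, EGTA, DTT buffer; 1 h at room temperature. EDTA stop plus Eu-anti-phosphotyrosine antibody, 665 nm read after 1 h. Inhibition relative to enzyme-free wells as 100%.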

[4] = molecular target: T4, JAK2 (Homo sapiens, UniProt O60674); assay: JAK2 enzyme inhibition test (LANCE method); conditions: 1 μM test compound; read-out: JAK2 enzyme inhibitory activity (%, 1 μM)
T4 construct: purchased Invitrogen
T4 sequence (O60674 whole entry): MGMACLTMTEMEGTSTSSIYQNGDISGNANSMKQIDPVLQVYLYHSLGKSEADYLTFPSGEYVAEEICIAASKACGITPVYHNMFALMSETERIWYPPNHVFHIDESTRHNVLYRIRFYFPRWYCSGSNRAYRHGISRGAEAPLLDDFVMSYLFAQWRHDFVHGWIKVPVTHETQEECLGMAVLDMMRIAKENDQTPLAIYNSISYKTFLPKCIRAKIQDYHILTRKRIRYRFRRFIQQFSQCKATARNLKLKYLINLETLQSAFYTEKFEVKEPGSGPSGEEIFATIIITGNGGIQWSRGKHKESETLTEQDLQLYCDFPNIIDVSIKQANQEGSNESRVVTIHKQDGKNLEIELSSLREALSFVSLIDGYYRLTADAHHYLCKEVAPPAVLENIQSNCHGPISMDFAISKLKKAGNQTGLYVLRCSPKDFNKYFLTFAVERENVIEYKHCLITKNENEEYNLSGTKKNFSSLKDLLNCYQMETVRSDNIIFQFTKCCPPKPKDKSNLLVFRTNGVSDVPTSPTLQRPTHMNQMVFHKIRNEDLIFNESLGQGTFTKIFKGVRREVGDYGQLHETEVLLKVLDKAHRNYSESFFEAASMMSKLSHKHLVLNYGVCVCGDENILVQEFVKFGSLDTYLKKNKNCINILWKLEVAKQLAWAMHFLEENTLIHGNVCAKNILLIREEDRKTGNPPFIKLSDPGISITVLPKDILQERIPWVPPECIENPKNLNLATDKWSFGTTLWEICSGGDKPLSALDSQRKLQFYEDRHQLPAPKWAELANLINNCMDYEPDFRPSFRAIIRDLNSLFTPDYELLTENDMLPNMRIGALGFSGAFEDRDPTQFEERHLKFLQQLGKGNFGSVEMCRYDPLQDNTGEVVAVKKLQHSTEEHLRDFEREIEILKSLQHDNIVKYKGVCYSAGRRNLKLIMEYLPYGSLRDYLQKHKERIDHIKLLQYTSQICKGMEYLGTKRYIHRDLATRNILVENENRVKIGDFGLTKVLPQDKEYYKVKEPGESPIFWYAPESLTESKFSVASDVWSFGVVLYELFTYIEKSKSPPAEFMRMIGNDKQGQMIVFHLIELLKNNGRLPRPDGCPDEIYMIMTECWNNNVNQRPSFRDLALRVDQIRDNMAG
Outline: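 Recombinant JAK2 (6 ng/mL solution) phosphorylated ULight-JAK1 peptide (300 nM solution) with ATP (45 μM solution) in pH 7.5 HEPES/MgCl2/DTT buffer for 1 hr at room temperature. After EDTA stop and europium anti-phosphotyrosine antibody for 1 hr, TR-FRET read at 665 nm; inhibition relative to enzyme-free wells as 100%.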

T1 sequence (P29597 whole entry): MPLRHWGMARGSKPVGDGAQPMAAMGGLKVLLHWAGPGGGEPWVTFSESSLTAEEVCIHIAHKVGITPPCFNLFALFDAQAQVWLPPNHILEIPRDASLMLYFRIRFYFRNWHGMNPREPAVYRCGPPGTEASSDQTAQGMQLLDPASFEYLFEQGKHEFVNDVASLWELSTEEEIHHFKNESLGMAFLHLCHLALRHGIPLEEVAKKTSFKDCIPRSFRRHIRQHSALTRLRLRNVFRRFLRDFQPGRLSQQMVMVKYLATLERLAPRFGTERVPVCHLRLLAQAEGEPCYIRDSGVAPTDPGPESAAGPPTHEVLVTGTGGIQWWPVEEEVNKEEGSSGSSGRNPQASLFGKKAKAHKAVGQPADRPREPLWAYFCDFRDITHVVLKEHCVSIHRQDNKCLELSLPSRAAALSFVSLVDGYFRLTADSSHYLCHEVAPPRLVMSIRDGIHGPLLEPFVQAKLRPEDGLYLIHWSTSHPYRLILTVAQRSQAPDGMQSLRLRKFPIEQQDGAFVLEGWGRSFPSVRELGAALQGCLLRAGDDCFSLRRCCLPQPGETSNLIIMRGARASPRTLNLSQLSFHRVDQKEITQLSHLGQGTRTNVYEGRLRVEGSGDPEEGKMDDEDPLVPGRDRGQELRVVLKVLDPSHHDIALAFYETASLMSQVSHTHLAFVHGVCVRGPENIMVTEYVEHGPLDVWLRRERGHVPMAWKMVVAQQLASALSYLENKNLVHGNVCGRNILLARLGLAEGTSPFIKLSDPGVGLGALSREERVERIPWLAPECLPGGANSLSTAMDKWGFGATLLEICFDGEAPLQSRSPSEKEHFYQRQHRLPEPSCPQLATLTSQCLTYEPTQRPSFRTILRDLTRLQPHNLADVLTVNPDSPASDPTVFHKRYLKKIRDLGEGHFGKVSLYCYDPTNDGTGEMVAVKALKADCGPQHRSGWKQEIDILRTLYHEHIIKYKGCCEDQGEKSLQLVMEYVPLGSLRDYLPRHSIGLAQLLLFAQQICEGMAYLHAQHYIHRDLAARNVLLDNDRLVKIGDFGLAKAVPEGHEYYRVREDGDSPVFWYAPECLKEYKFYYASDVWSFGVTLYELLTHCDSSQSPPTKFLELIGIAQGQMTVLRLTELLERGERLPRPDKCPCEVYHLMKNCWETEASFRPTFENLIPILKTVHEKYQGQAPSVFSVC

| Compound | inhibition at 1 µM [1] [%] | inhibition at 1 µM [2] [%] | inhibition at 1 µM [3] [%] | inhibition at 1 µM [4] [%] | JAK3 enzyme inhibitory activity (%, 1 μM) ([2]; 1 µM) [%] | JAK1 enzyme inhibitory activity (%, 1 μM) ([3]; 1 µM) [%] |
| --- | --- | --- | --- | --- | --- | --- |
| CN(c1cc(-c2cn(-c3c(F)cccc3C#N)c(=O)c3c(N)n[nH]c23)nn1C)C1CCCC1 [Example 123, 2-(3-amino-7-(5-(cyclopentyl(methyl)amino)-1-methyl-1H-pyrazol-3-yl)-4-oxo-1,4-dihydro-5H-pyrazolo[4,3-c]pyridin-5-yl)-3-fluorobenzonitrile] | 100 | 95 | 97 | 94 | – | – |
| CN(C)[C@@H]1CCN(c2cc(-c3cn(-c4c(F)cccc4F)c(=O)c4c(N)n[nH]c34)nn2C)C1 [Example 125, 3-amino-5-(2,6-difluorophenyl)-7-(5-((3R)-3-(dimethylamino)pyrrolidin-1-yl)-1-methyl-1H-pyrazol-3-yl)-1,5-dihydro-4H-pyrazolo[4,3-c]pyridin-4-one] | 99 | 99 | 98 | 98 | – | – |
| CN(C)C[C@H]1CCCN1c1cc(-c2cn(-c3c(F)cccc3F)c(=O)c3c(N)n[nH]c23)nn1C [Example 126, 3-amino-5-(2,6-difluorophenyl)-7-(5-((2R)-2-((dimethylamino)methyl)pyrrolidin-1-yl)-1-methyl-1H-pyrazol-3-yl)-1,5-dihydro-4H-pyrazolo[4,3-c]pyridin-4-one] | 98 | 99 | 92 | 98 | – | – |
| COC1(c2cc(-c3cn(-c4c(F)cccc4F)c(=O)c4c(N)n[nH]c34)nn2C)CN(C(=O)C(C)C)C1 [Example 130, 3-amino-5-(2,6-difluorophenyl)-7-(5-(1-isobutyryl-3-methoxyazetidin-3-yl)-1-methyl-1H-pyrazol-3-yl)-1,5-dihydro-4H-pyrazolo[4,3-c]pyridin-4-one] | 101 | 99 | 96 | 98 | – | – |
| COC1(c2cc(-c3cn(-c4c(F)cccc4F)c(=O)c4c(N)n[nH]c34)nn2C)CN(C(C)=O)C1 [Example 131, 7-(5-(1-acetyl-3-methoxyazetidin-3-yl)-1-methyl-1H-pyrazol-3-yl)-3-amino-5-(2,6-difluorophenyl)-1,5-dihydro-4H-pyrazolo[4,3-c]pyridin-4-one] | 100 | 99 | 95 | 98 | – | – |
| CC(C)[C@H](C)n1cc(-c2cc(N(C)C3CCCC3)n(C)n2)c2[nH]nc(N)c2c1=O [Example 134, 3-amino-7-(5-(cyclopentyl(methyl)amino)-1-methyl-1H-pyrazol-3-yl)-5-((2S)-3-methylbutan-2-yl)-1,5-dihydro-4H-pyrazolo[4,3-c]pyridin-4-one] | 99 | 99 | 97 | 98 | – | – |
| COC1(c2cc(-c3cn([C@@H](C)C(C)C)c(=O)c4c(N)n[nH]c34)nn2C)CN(S(=O)(=O)C(C)C)C1 [Example 136, 3-amino-7-(5-(1-(isopropylsulfonyl)-3-methoxyazetidin-3-yl)-1-methyl-1H-pyrazol-3-yl)-5-((2S)-3-methylbutan-2-yl)-1,5-dihydro-4H-pyrazolo[4,3-c]pyridin-4-one] | 100 | 98 | 80 | 98 | – | – |
| COC1(c2cc(-c3cn(C(C#N)C(C)C)c(=O)c4c(N)n[nH]c34)nn2C)CCC(F)(F)CC1 (stereo not drawn) [Example 137, 2-(3-amino-7-(5-(4,4-difluoro-1-methoxycyclohexyl)-1-methyl-1H-pyrazol-3-yl)-4-oxo-1,4-dihydro-5H-pyrazolo[4,3-c]pyridin-5-yl)-3-methylbutanenitrile] | 99 | – | – | 99 | 98 | 92 |

The next lines start with the values.

| inhibition at 1 µM [1] [%] | inhibition at 1 µM [2] [%] | inhibition at 1 µM [3] [%] | inhibition at 1 µM [4] [%] | JAK3 enzyme inhibitory activity (%, 1 μM) ([2]; 1 µM) [%] | JAK1 enzyme inhibitory activity (%, 1 μM) ([3]; 1 µM) [%] | Compound |
| --- | --- | --- | --- | --- | --- | --- |
| 101 | 100 | 99 | 99 | – | – | CO[C@]1(c2cc(-c3cn(-c4c(F)cccc4F)c(=O)c4c(N)n[nH]c34)nn2C)C[C@H](C(=O)N(C)C)C1 [Example 124, cis-3-(3-(3-amino-5-(2,6-difluorophenyl)-4-oxo-4,5-dihydro-1H-pyrazolo[4,3-c]pyridin-7-yl)-1-methyl-1H-pyrazol-5-yl)-3-methoxy-N,N-dimethylcyclobutanecarboxamide] |
| 100 | 100 | 99 | 99 | – | – | Cn1nc(-c2cn(-c3c(F)cccc3F)c(=O)c3c(N)n[nH]c23)cc1N1CCC(C)(C#N)CC1 [Example 127, 1-(3-(3-amino-5-(2,6-difluorophenyl)-4-oxo-4,5-dihydro-1H-pyrazolo[4,3-c]pyridin-7-yl)-1-methyl-1H-pyrazol-5-yl)-4-methylpiperidine-4-carbonitrile] |
| 100 | 99 | 98 | 98 | – | – | COC[C@H]1CCCN1c1cc(-c2cn(-c3c(F)cccc3F)c(=O)c3c(N)n[nH]c23)nn1C [Example 128, 3-amino-5-(2,6-difluorophenyl)-7-(5-((2R)-2-(methoxymethyl)pyrrolidin-1-yl)-1-methyl-1H-pyrazol-3-yl)-1,5-dihydro-4H-pyrazolo[4,3-c]pyridin-4-one] |
| 100 | 99 | 97 | 99 | – | – | COC1(c2cc(-c3cn(-c4c(F)cccc4F)c(=O)c4c(N)n[nH]c34)nn2C)CCS(=O)(=O)CC1 [Example 129, 3-amino-5-(2,6-difluorophenyl)-7-(5-(4-methoxy-1,1-dioxidotetrahydro-2H-thiopyran-4-yl)-1-methyl-1H-pyrazol-3-yl)-1,5-dihydro-4H-pyrazolo[4,3-c]pyridin-4-one] |
| 100 | 99 | 94 | 98 | – | – | COC1(c2cc(-c3cn(-c4c(F)cccc4F)c(=O)c4c(N)n[nH]c34)nn2C)CN(S(C)(=O)=O)C1 [Example 132, 3-amino-5-(2,6-difluorophenyl)-7-(5-(3-methoxy-1-(methylsulfonyl)azetidin-3-yl)-1-methyl-1H-pyrazol-3-yl)-1,5-dihydro-4H-pyrazolo[4,3-c]pyridin-4-one] |
| 99 | 96 | 91 | 87 | – | – | C[C@H](C1CC1)n1cc(-c2cc(N3CCC(C)(O)CC3)n(C)n2)c2[nH]nc(N)c2c1=O [Example 133, 3-amino-5-((1R)-1-cyclopropylethyl)-7-(5-(4-hydroxy-4-methylpiperidin-1-yl)-1-methyl-1H-pyrazol-3-yl)-1,5-dihydro-4H-pyrazolo[4,3-c]pyridin-4-one] |
| 100 | 99 | 96 | 98 | – | – | COC[C@H]1CCCN1c1cc(-c2cn([C@@H](C)C(C)C)c(=O)c3c(N)n[nH]c23)nn1C [Example 135, 3-amino-7-(5-((2R)-2-(methoxymethyl)pyrrolidin-1-yl)-1-methyl-1H-pyrazol-3-yl)-5-((2S)-3-methylbutan-2-yl)-1,5-dihydro-4H-pyrazolo[4,3-c]pyridin-4-one] |
